Test results published in patent US9439979B2, “Epidermal growth factor receptor (EGFR) and methods of use in adenoviral-associated virus type 6 (AAV6) transduction” (priority 2010, dated 2016).

How the values were obtained:
[1] = system: HEK293T cells; format: cell-based, human; settings: inhibitor 10 μm; for effect on AAV2 transduction of HEK293T cells: same conditions
Procedure: (§1) AAV transduction and pharmacological inhibition. The 32D and 32D-EGFR cells were transduced with 1.0E4 genomic particle (gp)/cell with each of the AAV serotypes tested. Cells were analyzed for GFP expression by FACS analysis at 96 hours posttransduction. The HEK293T, HN12 and HEp-2 cells, shown to be permissive to AAV2 and/or AAV6, were used to evaluate the specific role of EGFR in AAV-mediated transduction. Cells were incubated at 37° C. in the presence or absence of AG1478 (10 μm) or gefitnib (10 μm) for 30 minutes prior to addition of AAV. AAV2 and AAV6 containing the CMV-NLS-eGFP construct were added at a concentration of 1.0×10^4 gp/ml for 90 minutes.

[2] = system: HN12 cells; assay: AAV transduction and pharmacological inhibition in HN12 cells; format: cell-based
Procedure: (§2) In vitro transduction of HEp-2 and HN12 cells with AAV2 and AAV6 in the presence or absence of the EGFR inhibitor, AG1478, was studied. […] Transduction of HN12 cells in the presence of AG1478 was reduced by 77% (***p<0.0005, n=3).
as §1
(§3) Increased expression of EGFR correlates with aggressive head and neck squamous cell carcinoma (HNSCC) tumor growth and resistance to treatment (Thariat, J., et al., Int. J. Clin. Oncol., 12: 99-110 (2007)). The utility of AAV6 to transduce and ablate specific HNSCCs presenting with elevated EGFR expression was assessed by gene-directed enzyme prodrug therapy. Two HNSCC cell lines, HN12 and HEp-2 were selected to represent polarities of EGFR expression.

[3] = system: HEp-2 cells; assay: AAV transduction and pharmacological inhibition in HEp-2 cells; format: cell-based
Procedure: as §2, §1, §3

Compound | effect on AAV2 transduction of HEK293T cells [1] | reduction of AAV6 transduction of HN12 cells ([2]; in the presence of AG1478 (10 μm), FACS 96 hours) | effect on AAV2-mediated transduction of HN12 cells ([2]; presence or absence of AG1478) | inhibition of AAV6 transduction of HEK293T cells ([1]; 30 minutes preincubation, AAV6-CMV-eGFP, FACS 48 hours) | effect on AAV6 transduction of HEp-2 cells ([3]; in the presence of AG1478) | effect on AAV2-mediated transduction of HEp-2 cells ([3]; presence or absence of AG1478)
COc1cc2ncnc(Nc3ccc(F)c(Cl)c3)c2cc1OCCCN1CCOCC1 [gefitinib] | unchanged | – | – | – | – | –
AG1478 | unchanged | 77% | no significant (NS) difference | 50% | not altered | no significant (NS) difference
